The values below come from ChEMBL document CHEMBL2331473, “Two-component covalent inhibitor” (Bioorg Med Chem, 2013).

As usually defined, the inhibition is the change of the read-out against control, counted positive when it falls.

Activity calls are given as the source filed them. The rule behind the calls is not given here.

Experiment [1] relates to Tequatrovirus T4. Kind of experiment: Inhibition of Enterobacteria phage T4 DNA polymerase using biotin-labeled oligonucleotide hairpin substrate containing pre-reactive group at 3'-end assessed as loss of hairpin substrate elongation product at 10 uM incubated for 15 mins in presence of 4000 fold-excess of non-specific T7 RNA polymerase by PAGE method and filter binding assay.

Experiment [2] concerns Tequatrovirus T4. Kind of experiment: Inhibition of Enterobacteria phage T4 DNA polymerase using biotin-labeled oligonucleotide hairpin substrate containing pre-reactive group at 3'-end assessed as loss of hairpin substrate elongation product at 10 uM incubated for 15 mins by PAGE method and filter binding assay.

Consider `O=C(CCCc1ccc2ccc3cccc4ccc1c2c34)NC/C=C/c1cn([C@H]2C[C@H](O)[C@@H](COP(=O)(O)OP(=O)(O)OP(=O)(O)O)O2)c(=O)[nH]c1=O`, for which the inhibition result with Tequatrovirus T4 [1] was “Active”. The inhibition with Tequatrovirus T4 [2] was 87%.
